# According to PubChem BioAssay (NCI):
# Values joined by “and” are separate entries in the source; they are usually repeats but may differ in a detail not shown here. Identical values can stand only once.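 Following 48 hours of exposure in 96-well plates, responses at five concentrations were used to interpolate endpoints linearly. GI50 marks 50% less growth. TGI: concentration producing complete growth inhibition.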
# Legend:
# Experiment in all cases: NCI tumour cell line growth inhibition, 48 h
# SNB-19 CNS = system: SNB-19 CNS
# HOP-62 NSCLC = system: HOP-62 NSCLC
# SK-MEL-5 melanoma = system: SK-MEL-5 melanoma
# HS 578T breast = system: HS 578T breast
# OVCAR-3 ovarian = system: OVCAR-3 ovarian
# A549 NSCLC = system: A549 NSCLC
# MOLT-4 leukemia = system: MOLT-4 leukemia
# MDA-MB-435 = system: MDA-MB-435
# SK-OV-3 ovarian = system: SK-OV-3 ovarian
# OVCAR-4 ovarian = system: OVCAR-4 ovarian
# SF-295 CNS = system: SF-295 CNS
# A498 renal = system: A498 renal
# TK-10 renal = system: TK-10 renal
# LOX IMVI melanoma = system: LOX IMVI melanoma
# ACHN renal = system: ACHN renal
# PC-3 prostate = system: PC-3 prostate
# NCI-H460 lung = system: NCI-H460 lung
# SW-620 colon = system: SW-620 colon
# HCC-2998 colon = system: HCC-2998 colon
# U251 CNS = system: U251 CNS
# NCI-H226 lung = system: NCI-H226 lung
# NCI/ADR-RES ovarian = system: NCI/ADR-RES ovarian
# COLO 205 colon = system: COLO 205 colon
# SR leukemia = system: SR leukemia
# SK-MEL-2 melanoma = system: SK-MEL-2 melanoma
# EKVX NSCLC = system: EKVX NSCLC
# HOP-92 NSCLC = system: HOP-92 NSCLC
# M14 melanoma = system: M14 melanoma
# 786-0 renal = system: 786-0 renal
# BT-549 breast = system: BT-549 breast
# KM12 colon = system: KM12 colon
# RPMI-8226 leukemia = system: RPMI-8226 leukemia
# MDA-MB-231 breast = system: MDA-MB-231 breast
# SK-MEL-28 melanoma = system: SK-MEL-28 melanoma
# DU-145 prostate = system: DU-145 prostate
# SF-268 CNS = system: SF-268 CNS
# SNB-75 CNS = system: SNB-75 CNS
# MDA-N = system: MDA-N
# OVCAR-8 ovarian = system: OVCAR-8 ovarian
# UACC-257 melanoma = system: UACC-257 melanoma
# HL-60(TB) leukemia = system: HL-60(TB) leukemia
# SN12C renal = system: SN12C renal
# T-47D breast = system: T-47D breast
# SF-539 CNS = system: SF-539 CNS
# IGROV1 ovarian = system: IGROV1 ovarian
# HCT-15 colon = system: HCT-15 colon
# NCI-H23 lung = system: NCI-H23 lung
# HCT-116 colon = system: HCT-116 colon
# K-562 leukemia = system: K-562 leukemia
# CAKI-1 renal = system: CAKI-1 renal
# MALME-3M melanoma = system: MALME-3M melanoma
# RXF 393 renal = system: RXF 393 renal
# NCI-H522 lung = system: NCI-H522 lung
# OVCAR-5 ovarian = system: OVCAR-5 ovarian
# HT29 colon = system: HT29 colon
# MCF7 breast = system: MCF7 breast
# CCRF-CEM leukemia = system: CCRF-CEM leukemia
# UO-31 renal = system: UO-31 renal
# UACC-62 melanoma = system: UACC-62 melanoma
compound,measurement,setting,value
Cc1c(F)c(N)c2c(=O)cc(-c3ccc(NC(=O)[C@@H](N)CCCCN)c(F)c3)oc2c1F,TGI,SNB-19 CNS,> 78.7 µM and 49.5 µM
same,TGI,HOP-62 NSCLC,27.3 µM and 24 µM
same,GI50,SK-MEL-5 melanoma,13.2 µM and 2.63 µM
same,TGI,SK-MEL-5 melanoma,27.4 µM and 27.2 µM
same,GI50,HS 578T breast,23.5 µM and 11.5 µM
same,TGI,HS 578T breast,53.4 µM and 45.8 µM
same,GI50,OVCAR-3 ovarian,0.508 µM and 0.249 µM
same,TGI,OVCAR-3 ovarian,20.7 µM and 14.8 µM
same,GI50,A549 NSCLC,3.03 µM and 0.59 µM
same,TGI,A549 NSCLC,31 µM and 18.4 µM
same,GI50,MOLT-4 leukemia,3.3 µM and 1.38 µM
same,TGI,MOLT-4 leukemia,15.1 µM and 5.79 µM
same,TGI,MDA-MB-435,26.6 µM and 20.5 µM
same,TGI,SK-OV-3 ovarian,31.6 µM and 32.6 µM
same,TGI,OVCAR-4 ovarian,32.7 µM and 26.7 µM
same,TGI,SF-295 CNS,28.5 µM and 32.3 µM
same,TGI,A498 renal,0.22 µM
same,TGI,TK-10 renal,21.4 µM and 26.4 µM
same,TGI,LOX IMVI melanoma,41.3 µM and 27.7 µM
same,TGI,ACHN renal,31.1 µM and 25.6 µM
same,TGI,PC-3 prostate,32 µM and 29.3 µM
same,TGI,NCI-H460 lung,16.2 µM and 16.6 µM
same,GI50,SW-620 colon,7.81 µM and 1.71 µM
same,TGI,SW-620 colon,39 µM and 17.3 µM
same,GI50,HCC-2998 colon,0.253 µM and 0.769 µM
same,TGI,HCC-2998 colon,18.7 µM and 19.7 µM
same,GI50,U251 CNS,2.96 µM and 0.842 µM
same,TGI,U251 CNS,21.9 µM and 15.1 µM
same,GI50,NCI-H226 lung,0.0446 µM
same,TGI,NCI-H226 lung,15 µM
same,TGI,NCI/ADR-RES ovarian,51.9 µM and 78.7 µM
same,GI50,COLO 205 colon,14.9 µM and 6.93 µM
same,TGI,COLO 205 colon,31.5 µM and 24.4 µM
same,GI50,SR leukemia,5.84 µM and 2.53 µM
same,TGI,SR leukemia,20.3 µM and 9.55 µM
same,TGI,SK-MEL-2 melanoma,34.6 µM and 47.1 µM
same,TGI,EKVX NSCLC,28.4 µM and 22.6 µM
same,TGI,HOP-92 NSCLC,68.5 µM and 39.8 µM
same,TGI,M14 melanoma,46 µM and 39.4 µM
same,TGI,786-0 renal,24 µM and 26.4 µM
same,TGI,BT-549 breast,50.3 µM and 49.6 µM
same,TGI,KM12 colon,24.8 µM and 22.4 µM
same,GI50,RPMI-8226 leukemia,3.48 µM and 0.936 µM
same,TGI,RPMI-8226 leukemia,32.6 µM and 22.3 µM
same,TGI,MDA-MB-231 breast,33.1 µM and 30.8 µM
same,TGI,SK-MEL-28 melanoma,35.1 µM and 29 µM
same,TGI,DU-145 prostate,41.3 µM and 27.4 µM
same,TGI,SF-268 CNS,34.7 µM and 39.6 µM
same,TGI,SNB-75 CNS,13.6 µM
same,TGI,MDA-N,28.7 µM and 24.6 µM
same,TGI,OVCAR-8 ovarian,33 µM and 24.6 µM
same,GI50,UACC-257 melanoma,0.302 µM
same,TGI,UACC-257 melanoma,24.7 µM and 27.8 µM
same,GI50,HL-60(TB) leukemia,11.2 µM and 2.41 µM
same,TGI,HL-60(TB) leukemia,29.3 µM and 30.4 µM
same,TGI,SN12C renal,31.7 µM and 32.7 µM
same,TGI,T-47D breast,28.7 µM and > 57.3 µM
same,GI50,SF-539 CNS,17.1 µM and 5.78 µM
same,TGI,SF-539 CNS,33.3 µM and 13.6 µM
same,TGI,IGROV1 ovarian,19.5 µM and 18.1 µM
same,TGI,HCT-15 colon,30.4 µM and 30.3 µM
same,GI50,NCI-H23 lung,5.61 µM and 15.4 µM
same,TGI,NCI-H23 lung,23.3 µM and 37.5 µM
same,TGI,HCT-116 colon,21.5 µM and 22.1 µM
same,GI50,K-562 leukemia,0.652 µM and 0.278 µM
same,TGI,K-562 leukemia,36.4 µM and 10.4 µM
same,TGI,CAKI-1 renal,9.01 µM and 29.7 µM
same,GI50,MALME-3M melanoma,23.6 µM and 10 µM
same,TGI,MALME-3M melanoma,44.2 µM and 33.6 µM
same,TGI,RXF 393 renal,36.1 µM and 53.3 µM
same,GI50,NCI-H522 lung,19.7 µM and 4.68 µM
same,TGI,NCI-H522 lung,45.5 µM and 35.3 µM
same,GI50,OVCAR-5 ovarian,0.947 µM and 0.249 µM
same,TGI,OVCAR-5 ovarian,25.2 µM and 21.9 µM
same,TGI,HT29 colon,31 µM and 26.4 µM
same,TGI,MCF7 breast,1.81 µM and 1.38 µM
same,TGI,CCRF-CEM leukemia,22.9 µM
same,TGI,UO-31 renal,33.7 µM and 22.1 µM
C/C1=C\CC/C(C)=C/C=C(/C(C)C)CC/C(C(=O)O)=C/CC1,TGI,SNB-19 CNS,> 100 µM
same,TGI,HOP-62 NSCLC,> 100 µM
same,TGI,SK-MEL-5 melanoma,> 100 µM
same,TGI,HS 578T breast,> 100 µM
same,TGI,OVCAR-3 ovarian,59.5 µM
same,TGI,A549 NSCLC,> 100 µM
same,TGI,MOLT-4 leukemia,> 100 µM
same,TGI,MDA-MB-435,> 100 µM
same,TGI,SK-OV-3 ovarian,98.2 µM
same,TGI,OVCAR-4 ovarian,> 100 µM
same,TGI,SF-295 CNS,78.3 µM
same,TGI,A498 renal,75.1 µM
same,TGI,TK-10 renal,> 100 µM
same,TGI,LOX IMVI melanoma,> 100 µM
same,TGI,ACHN renal,> 100 µM
same,TGI,PC-3 prostate,> 100 µM
same,TGI,NCI-H460 lung,> 100 µM
same,TGI,SW-620 colon,> 100 µM
same,TGI,HCC-2998 colon,> 100 µM
same,TGI,U251 CNS,> 100 µM
same,TGI,NCI-H226 lung,> 100 µM
same,TGI,NCI/ADR-RES ovarian,> 100 µM
same,TGI,COLO 205 colon,43.2 µM
same,TGI,SR leukemia,> 100 µM
same,TGI,SK-MEL-2 melanoma,62.2 µM
same,TGI,EKVX NSCLC,> 100 µM
same,TGI,HOP-92 NSCLC,> 100 µM
same,TGI,M14 melanoma,> 100 µM
same,TGI,786-0 renal,> 100 µM
same,TGI,BT-549 breast,> 100 µM
same,TGI,KM12 colon,> 100 µM
same,TGI,RPMI-8226 leukemia,62 µM
same,TGI,MDA-MB-231 breast,> 100 µM
same,TGI,SK-MEL-28 melanoma,> 100 µM
same,TGI,DU-145 prostate,> 100 µM
same,TGI,SF-268 CNS,> 100 µM
same,TGI,UACC-62 melanoma,> 100 µM
same,TGI,SNB-75 CNS,> 100 µM
same,TGI,MDA-N,> 100 µM
same,TGI,OVCAR-8 ovarian,> 100 µM
same,TGI,UACC-257 melanoma,> 100 µM
same,TGI,HL-60(TB) leukemia,> 100 µM
same,TGI,SN12C renal,> 100 µM
same,TGI,T-47D breast,75.6 µM
same,TGI,SF-539 CNS,> 100 µM
same,TGI,IGROV1 ovarian,> 100 µM
same,TGI,HCT-15 colon,> 100 µM
same,TGI,NCI-H23 lung,> 100 µM
same,TGI,HCT-116 colon,> 100 µM
same,TGI,K-562 leukemia,> 100 µM
same,TGI,CAKI-1 renal,> 100 µM
same,TGI,MALME-3M melanoma,> 100 µM
same,TGI,RXF 393 renal,> 100 µM
same,TGI,NCI-H522 lung,> 100 µM
same,TGI,OVCAR-5 ovarian,> 100 µM
same,TGI,HT29 colon,> 100 µM
same,TGI,MCF7 breast,> 100 µM
same,TGI,CCRF-CEM leukemia,> 100 µM
same,TGI,UO-31 renal,> 100 µM
